Measurements as given in PubChem BioAssay (NCI).
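Where inhibition never reached the appropriate level, the endpoint shown equals the highest concentration tested. Otherwise, values were interpolated linearly from a five-concentration, 48-hour dose response in 96-well plates. TGI denotes the concentration required for complete inhibition of growth.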

Tests used:
Experiment in all cases: growth of human tumour cells (NCI), 48 h
HOP-92 NSCLC = system: HOP-92 NSCLC
SR leukemia = system: SR leukemia
SW-620 colon = system: SW-620 colon
MDA-MB-231 breast = system: MDA-MB-231 breast
K-562 leukemia = system: K-562 leukemia
MOLT-4 leukemia = system: MOLT-4 leukemia
ACHN renal = system: ACHN renal
U251 CNS = system: U251 CNS
A498 renal = system: A498 renal
CAKI-1 renal = system: CAKI-1 renal
786-0 renal = system: 786-0 renal
UACC-62 melanoma = system: UACC-62 melanoma
BT-549 breast = system: BT-549 breast
COLO 205 colon = system: COLO 205 colon
NCI/ADR-RES ovarian = system: NCI/ADR-RES ovarian
SNB-75 CNS = system: SNB-75 CNS
SK-MEL-2 melanoma = system: SK-MEL-2 melanoma
OVCAR-8 ovarian = system: OVCAR-8 ovarian
OVCAR-5 ovarian = system: OVCAR-5 ovarian
T-47D breast = system: T-47D breast
MDA-MB-435 = system: MDA-MB-435
TK-10 renal = system: TK-10 renal
MCF7 breast = system: MCF7 breast
NCI-H23 lung = system: NCI-H23 lung
UACC-257 melanoma = system: UACC-257 melanoma
HCT-15 colon = system: HCT-15 colon
M14 melanoma = system: M14 melanoma
HS 578T breast = system: HS 578T breast
PC-3 prostate = system: PC-3 prostate
HOP-62 NSCLC = system: HOP-62 NSCLC
SNB-19 CNS = system: SNB-19 CNS
SK-MEL-5 melanoma = system: SK-MEL-5 melanoma
HCT-116 colon = system: HCT-116 colon
HCC-2998 colon = system: HCC-2998 colon
RPMI-8226 leukemia = system: RPMI-8226 leukemia
RXF 393 renal = system: RXF 393 renal
EKVX NSCLC = system: EKVX NSCLC
HT29 colon = system: HT29 colon
IGROV1 ovarian = system: IGROV1 ovarian
KM12 colon = system: KM12 colon
SF-539 CNS = system: SF-539 CNS
MDA-N = system: MDA-N
DU-145 prostate = system: DU-145 prostate
OVCAR-4 ovarian = system: OVCAR-4 ovarian
NCI-H522 lung = system: NCI-H522 lung
SK-OV-3 ovarian = system: SK-OV-3 ovarian
NCI-H460 lung = system: NCI-H460 lung
UO-31 renal = system: UO-31 renal
SF-268 CNS = system: SF-268 CNS
SF-295 CNS = system: SF-295 CNS
SK-MEL-28 melanoma = system: SK-MEL-28 melanoma
NCI-H226 lung = system: NCI-H226 lung
OVCAR-3 ovarian = system: OVCAR-3 ovarian
SN12C renal = system: SN12C renal
A549 NSCLC = system: A549 NSCLC

N#CCCN(CCC#N)c1ccc(C(N=Nc2ccc(Cl)cc2)=Nc2ccccc2)cc1
TGI (HOP-92 NSCLC): 32.3 µM
TGI (SR leukemia): > 100 µM
TGI (SW-620 colon): 39.2 µM
TGI (MDA-MB-231 breast): 33.8 µM
TGI (K-562 leukemia): > 100 µM
TGI (MOLT-4 leukemia): 89.4 µM
TGI (ACHN renal): 27.2 µM
TGI (U251 CNS): 32.4 µM
TGI (A498 renal): 34.5 µM
TGI (CAKI-1 renal): 26.1 µM
TGI (786-0 renal): 28 µM
TGI (UACC-62 melanoma): 21.8 µM
TGI (BT-549 breast): 16.6 µM
TGI (COLO 205 colon): 12.4 µM
TGI (NCI/ADR-RES ovarian): 24.2 µM
TGI (SNB-75 CNS): 31.8 µM
TGI (SK-MEL-2 melanoma): 13.9 µM
TGI (OVCAR-8 ovarian): 28.7 µM
TGI (OVCAR-5 ovarian): 26 µM
TGI (T-47D breast): 27.2 µM
TGI (MDA-MB-435): 27.5 µM
TGI (TK-10 renal): 29.1 µM
TGI (MCF7 breast): 28.2 µM
TGI (NCI-H23 lung): 25.7 µM
TGI (UACC-257 melanoma): 20.8 µM
TGI (HCT-15 colon): 21.2 µM
TGI (M14 melanoma): 26.9 µM
TGI (HS 578T breast): 35 µM
TGI (PC-3 prostate): 25.5 µM
TGI (HOP-62 NSCLC): 28.2 µM
TGI (SNB-19 CNS): 25 µM
TGI (SK-MEL-5 melanoma): 5.13 µM
TGI (HCT-116 colon): 24.4 µM
TGI (HCC-2998 colon): 20.6 µM
TGI (RPMI-8226 leukemia): > 100 µM
TGI (RXF 393 renal): 30.8 µM
TGI (EKVX NSCLC): 24.4 µM
TGI (HT29 colon): 34.3 µM
TGI (IGROV1 ovarian): 24.6 µM
TGI (KM12 colon): 31.3 µM
TGI (SF-539 CNS): 29.1 µM
TGI (MDA-N): 22.8 µM
TGI (DU-145 prostate): 26.9 µM
TGI (OVCAR-4 ovarian): 26 µM
TGI (NCI-H522 lung): 30.4 µM
TGI (SK-OV-3 ovarian): 27.1 µM
TGI (NCI-H460 lung): 22.5 µM
TGI (UO-31 renal): 21.3 µM
TGI (SF-268 CNS): 27.1 µM
TGI (SF-295 CNS): 12 µM
TGI (SK-MEL-28 melanoma): 30 µM
TGI (NCI-H226 lung): 31.9 µM
TGI (OVCAR-3 ovarian): 22.1 µM
TGI (SN12C renal): 33.5 µM
TGI (A549 NSCLC): 29.1 µM
